Assay results from US7094869B2, “Low molecular weight peptidomimetic growth hormone secretagogues” (Genentech, Inc., priority 1994, dated 2006).
Read-outs that look alike come from different tables or passages of the source. Starred links: 1 amine or outer side, 2 acyl side, 3 side chain; linkers in the order of their positions; H or OH if unused. Non-standard residues stand in square brackets, D forms with d. Residues, ends and D or L forms follow the SMILES beside them. ξ: configuration not given here. *: point of attachment. dNMe2Nal = CN[C@H](Cc1ccc2ccccc2c1)C(=O)O; 2Nal = N[C@@H](Cc1ccc2ccccc2c1)C(=O)O; d2Nal = N[C@H](Cc1ccc2ccccc2c1)C(=O)O; ξNMe2Nal = CNC(Cc1ccc2ccccc2c1)C(=O)O; β3hAib = CC(C)(CC(=O)[*:2])N[*:1]; ξ2Nal = NC(Cc1ccc2ccccc2c1)C(=O)O; NMeGABA = CN(CCCC(=O)[*:2])[*:1]; Isonicotinoyl = O=C(c1ccncc1)*; Morpholide = C1CN(*)CCO1; Inp = O=C(O)C1CCNCC1; ξK = NCCCCC(N)C(=O)O; βAla = NCCC(=O)O

Key:
rat pituitary cells [1] = target: T1, rat pituitary cells (Rattus norvegicus, UniProt O08725); assay: Rat “pit” cell challenges: combinations with GHRP-6/GHRH, desensitization, somatostatin suppression, GHRP antagonist; type: cell-based
Protocol: Dispersion: Adult female Sprague-Dawley (160-180 g., Charles River) rats were group-caged in a 12:12 light:dark cycle with food and water available ad libitum. Pituitaries from ten rats were removed, the posterior pituitary discarded and the anterior pituitary placed in Hanks' Balanced Salt Solution (HBSS: without calcium chloride, w/o magnesium chloride, w/o magnesium sulfate; Gibco) containing 20 mM HEPES (Gibco) and 100 U/ml penicillin streptomycin (PS: JRH Biosciences). Under sterile conditions, pituitaries were rinsed twice then minced into small fragments with a razor blade. Fragments were resuspended in 5 ml of HBSS/HEPES containing 20 mg collagenase (Serva 17449) and 200 ml of 1 mg/ml DNase (Sigma) for a 40 min. incubation in a 37° C. gyrotory water bath shaker (New Brunswick Scientific Model G76; setting 10). After the incubation, fragments were triturated to yield small clumps and single cells. The cells were centrifuged 1000× g for 5 min, resuspended, counted and plated at a final cell concentration of 100,000 cells/ml. Incubation media was DME low glucose media w/NaHCO3 (Gibco) containing 20 mM hepes, 100 U/ml PS and 10% FBS (Hyclone A-111-L). Cells were plated at 0.5 ml per well in 48 well plates (Falcon) and incubated at 37° C. in 5% C02 for three days. […] The highest concentration of DMSO in media was 0.1%. Stock solutions (1 mM) of rat GHRH, somatostatin (Sigma) and GHRP antagonist HwkWfK were made fresh in media and diluted appropriately. The media used in all challenges and washing steps was DME low glucose with 20 mM Hepes, 100 U/ml PS, 10% FBS. Media was warmed to 37° C. and gassed by placing it into the incubator prior to challenge. On day three, the media was discarded and fresh media (approximately 1 ml) added for the first of three washes. After the last wash, the plate was placed back in the incubator for a 15 min pre-incubation. Then cells were washed 2× (with warmed and gassed media) and fresh 0.5 ml media were added for the second 15 min. pre-incubation. After the second pre-incubation cells were washed 2× as above and 0.5 ml of control and test solutions were added for a final 15 min incubation. After this incubation, the media were removed for subsequent GH ELISA. GH ELISA: A two-site ELISA was used to determine rat GH concentration in the media. Briefly, goat anti-rat GH antibody (lot#19164-20) was used to coat Nunc immunoplates overnight. After blocking and washing, standard (rat GH reference preparation: Parlow) and challenge media is diluted 1:20 prior to GH assay were added for a 1 hr room temperature incubation. STATISTICS: The mean for each group was determined and analyzed by one-way analysis of variance with a post-hoc Student-Newman-Keuls. Significance is defined as P<0.05. The EC50 was calculated using a 4-parameter curve-fit program (Kaleidagraph). Three to four independent EC50s were used to derive the mean and SEM.

growth hormone secretion = assay: GHRP induced growth hormone secretion, intravenous administration (Rat IV); type: in vivo; conditions: serum GH 10 min after injection; for RAT IV ED50: iv injection
In short: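 Female Sprague Dawley rats (24-30 days, 50-90 g) under intraperitoneal pentobarbitone received graded intravenous tail-vein peptide doses in pH 5.0 sodium acetate/mannitol buffer 20 min post-anaesthesia. Blood by cardiac puncture 10 min after dosing; serum GH measured by rat GH ELISA in duplicate.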

rat pituitary cells [2] = target: T1, rat pituitary cells
In short: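 Primary rat anterior pituitary cells, cultured three days in DME low glucose/10% FBS, were washed, pre-incubated twice for 15 min, then challenged 15 min with test compounds (DMSO ≤0.1%) at 37 °C. Released GH was measured by two-site ELISA; EC50 came from 4-parameter fits, mean of three to four independent determinations.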

[3] = read-out: PIT Cell EC50, Table IV, formula III compounds, GH release, 15 min incubation
[4] = read-out: PIT Cell EC50, Table III, formula IV compounds, GH release, 15 min incubation
[5] = read-out: PIT Cell EC50, Table VI, retroinverso compounds of formula V, GH release, 15 min incubation

T1 sequence (O08725 whole entry): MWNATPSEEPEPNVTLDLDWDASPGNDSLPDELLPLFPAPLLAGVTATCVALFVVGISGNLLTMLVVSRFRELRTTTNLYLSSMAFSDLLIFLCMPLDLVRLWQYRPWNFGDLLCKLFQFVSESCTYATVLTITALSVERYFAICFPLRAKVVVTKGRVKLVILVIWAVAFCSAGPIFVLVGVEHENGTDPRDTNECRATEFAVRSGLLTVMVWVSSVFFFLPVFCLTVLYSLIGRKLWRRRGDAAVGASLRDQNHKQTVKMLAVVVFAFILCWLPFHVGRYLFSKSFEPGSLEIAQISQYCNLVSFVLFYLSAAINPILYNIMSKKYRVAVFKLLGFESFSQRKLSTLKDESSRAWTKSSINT

SMILES | RAT IV ED50 (growth hormone secretion; Table III) [µg] | EC50 (rat pituitary cells [2]; [4]) [nM] | other results
NC(=O)CN(CCc1ccccc1)C(=O)[C@@H](Cc1ccc2ccccc2c1)NC(=O)[C@@H](Cc1ccc2ccccc2c1)NC(=O)C1CCNCC1 [(inip) b b feg amide, (inip)-DβNal-DβNal-(N-2-phenylethyl-Gly) amide] |  |  | GH response compared with control (rat pituitary cells [1]; 100 nM): significantly greater than control; GH release in combination with GHRH (rat pituitary cells [1]; GHRP 100 nM plus GHRH 10 or 100 nM): synergistic; GH release in combination with GHRP-6 (rat pituitary cells [1]; both at 100 nM): not synergistic; GH release in the presence of 20 nM somatostatin (rat pituitary cells [1]; coincubation with 20 nM somatostatin): totally suppressed; GH release after sequential 15 min incubations with fresh compound (desensitization) (rat pituitary cells [1]; three sequential 15 min incubations, 100 nM): markedly decreased; RAT IV ED50 (growth hormone secretion; Table IV): 1 µg; fold more potent than GHRP-6 (rat pituitary cells [2]; ratio of pit cell EC50s): ~25 fold; EC50 (rat pituitary cells [2]; read-out: EC50 of the representative GH dose response, single representative experiment, 15 min exposure): 0.09 nM; EC50 (rat pituitary cells [2]; read-out: mean EC50, mean ± SE of independent EC50s): 0.25 ± 0.19 nM
CN(C(=O)C1CCNCC1)[C@H](Cc1ccc2ccccc2c1)C(=O)N[C@@H](Cc1ccc2ccccc2c1)C(=O)N[C@@H](Cc1ccccc1)C(=O)O [(inip) nmb B F acid] (H-[Inp][dNMe2Nal][2Nal]F-OH) |  |  | RAT IV ED50 (growth hormone secretion; Table IV): 100 µg; EC50 (rat pituitary cells [2]; [3]): 7 nM
CN(C(=O)C1CCNCC1)C(Cc1ccc2ccccc2c1)C(=O)N[C@H](Cc1ccc2ccccc2c1)C(=O)N[C@@H](Cc1ccccc1)C(=O)NC(CCCCN)C(N)=O (stereo partly drawn) [(inip) nmb b F K amide, (inip)-(N-Me-DβNal)-DβNal-Phe-Lys-amide] (H-[Inp][ξNMe2Nal][d2Nal]F[ξK]-NH2) | 0.4 | 0.27 | 
COC(=O)[C@H](Cc1ccccc1)NC(=O)[C@@H](Cc1ccc2ccccc2c1)NC(=O)[C@@H](Cc1ccc2ccccc2c1)N(C)C(=O)C1CCNCC1 [(inip) nmb b F Me ester] (H-[Inp][dNMe2Nal][d2Nal]F-OMe) |  |  | RAT IV ED50 (growth hormone secretion; Table IV): 10 µg; EC50 (rat pituitary cells [2]; [3]): 1.4 nM
CN(C(=O)C1CCNCC1)[C@H](Cc1ccc2ccccc2c1)C(=O)N[C@H](Cc1ccc2ccccc2c1)C(=O)N[C@@H](Cc1ccccc1)C(=O)O [(inip) nmb b F acid] (H-[Inp][dNMe2Nal][d2Nal]F-OH) |  |  | RAT IV ED50 (growth hormone secretion; Table IV): 5 µg; EC50 (rat pituitary cells [2]; [3]): 1.4 nM
CN(C(=O)C1CCNCC1)[C@H](Cc1ccc2ccccc2c1)C(=O)N[C@H](Cc1ccc2ccccc2c1)C(=O)N[C@@H](Cc1ccccc1)C(N)=O [(inip) nmb b F amide] (H-[Inp][dNMe2Nal][d2Nal]F-NH2) |  |  | RAT IV ED50 (growth hormone secretion; Table IV): 5 µg; EC50 (rat pituitary cells [2]; [3]): 0.5 nM
CN(C(=O)C1CCNCC1)[C@H](Cc1ccc2ccccc2c1)C(=O)N[C@H](Cc1ccc2ccccc2c1)C(=O)N[C@@H](Cc1ccccc1)C(=O)N1CCOCC1 [(inip) nmb b F mor] (H-[Inp][dNMe2Nal][d2Nal]F-Morpholide) | 10 | 0.8 | 
CN(C(=O)C1CCNCC1)C(Cc1ccc2ccccc2c1)C(=O)N[C@H](Cc1c[nH]c2ccccc12)C(=O)N[C@@H](Cc1ccccc1)C(=O)NC(CCCCN)C(N)=O (stereo partly drawn) [(inip) nmb w F K amide, (inip)-(N-Me-DβNal)-DTrp-Phe-Lys-amide] (H-[Inp][ξNMe2Nal][dW]F[ξK]-NH2) | 0.2 | 0.2 | 
NC(=O)[C@H](Cc1ccccc1)NC(=O)[C@@H](Cc1c[nH]c2ccccc12)NC(=O)[C@@H](Cc1c[nH]c2ccccc12)NC(=O)C1CCNCC1 [(inip) w w F amide] (H-[Inp][dW][dW]F-NH2) |  |  | RAT IV ED50 (growth hormone secretion; Table IV): 5 µg; EC50 (rat pituitary cells [2]; [3]): 0.9 nM
O=C(N[C@H](Cc1c[nH]c2ccccc12)C(=O)N[C@@H](CO)Cc1c[nH]c2ccccc12)C1CCNCC1 [(inip) w wol] |  |  | RAT IV ED50 (growth hormone secretion; Table V): 20 µg; EC50 (rat pituitary cells [2]; read-out: PIT Cell EC50, Table V, formula II compounds, GH release, 15 min incubation): 4 nM
CNCCCC(=O)NC(Cc1ccc2ccccc2c1)C(=O)N[C@H](Cc1ccc2ccccc2c1)C(=O)N[C@@H](Cc1ccccc1)C(=O)NC(CCCCN)C(N)=O (stereo partly drawn) [(mab) b b F K amide, [4-(N-methylamino)butanoyl]-DβNal-DβNal-Phe-Lys-amide] (NMeGABA-[ξ2Nal][d2Nal]F[ξK]-NH2) | 0.7 | 1.4 | 
CC(C)(N)CC(=O)N[C@H](Cc1ccc2ccccc2c1)C(=O)N[C@H](Cc1ccc2ccccc2c1)C(=O)N[C@@H](Cc1ccccc1)C(=O)N[C@@H](CCCCN)C(N)=O [(nba) b b F K amide] (β3hAib-[d2Nal][d2Nal]FK-NH2) | 100 | 2.8 | 
NCCCC[C@H](NC(=O)[C@H](Cc1ccccc1)NC(=O)[C@@H](Cc1ccc2ccccc2c1)NC(=O)[C@@H](Cc1ccc2ccccc2c1)NC(=O)c1ccncc1)C(N)=O [(pyc) b b F K amide] (Isonicotinoyl-[d2Nal][d2Nal]FK-NH2) | 200 | > 300 | 
C[C@H](N)C(=O)N[C@H](Cc1ccc2ccccc2c1)C(=O)N[C@H](Cc1ccc2ccccc2c1)C(=O)N[C@@H](Cc1ccccc1)C(=O)N[C@@H](CCCCN)C(N)=O [A b b F K amide] (H-A[d2Nal][d2Nal]FK-NH2) | 10 | 2.1 | 
CC(=O)N[C@H](Cc1ccc2ccccc2c1)C(=O)N[C@@H](Cc1ccc2ccccc2c1)C(=O)N[C@@H](Cc1ccc2ccccc2c1)C(=O)NCCCN [Ac b B B ram, Acetyl-DβNal-βNal-βNal-[N-(3-aminopropyl)] amide] |  |  | RAT IV ED50 (growth hormone secretion; Table VI): 100 µg; EC50 (rat pituitary cells [2]; [5]): 4.8 nM
NCCCC[C@H](NC(=O)[C@H](Cc1ccccc1)NC(=O)[C@@H](Cc1ccc2ccccc2c1)NC(=O)[C@@H](Cc1ccc2ccccc2c1)NC(=O)CN)C(N)=O [G b b F K amide] (H-G[d2Nal][d2Nal]FK-NH2) | 100 | 14.9 | 
NCCCC[C@H](NC(=O)[C@H](Cc1ccccc1)NC(=O)[C@@H](Cc1c[nH]c2ccccc12)NC(=O)[C@@H](Cc1ccc2ccccc2c1)NC(=O)CN)C(N)=O [G b w F K amide] (H-G[d2Nal][dW]FK-NH2) | 4.8 | 0.8 | 
NCCCC[C@H](NC(=O)[C@H](Cc1ccccc1)NC(=O)[C@@H](Cc1c[nH]c2ccccc12)NC(=O)[C@@H](Cc1c[nH]c2ccccc12)NC(=O)CN)C(N)=O [G w w F K amide] (H-G[dW][dW]FK-NH2) | 2.5 | 2.1 | 
C[C@H](NC(=O)[C@@H](Cc1ccc2ccccc2c1)NC(=O)[C@@H](C)N)C(=O)N[C@@H](Cc1c[nH]c2ccccc12)C(=O)N[C@H](Cc1ccccc1)C(=O)N[C@@H](CCCCN)C(N)=O [GHRP 2, D Ala-D βNal-Ala-Trp-D Phe-Lys-NH2, reference compound] (H-[dA][d2Nal]AW[dF]K-NH2) |  |  | Rat IV ED50 (growth hormone secretion; Table II, iv tail vein injection, anesthetized weanling female rats): 0.35 µg; EC50 (rat pituitary cells [2]; read-out: “Pit” Cell EC50, Table II, prior art compounds, GH release, 15 min incubation): 1 nM
NCCCC[C@H](NC(=O)[C@H](Cc1ccccc1)NC(=O)[C@@H](Cc1ccc2ccccc2c1)NC(=O)[C@@H](Cc1ccc2ccccc2c1)NC(=O)[C@@H](N)Cc1c[nH]cn1)C(N)=O [H b b F K amide] (H-H[d2Nal][d2Nal]FK-NH2) | 15.4 | 2.4 | 
NCCCC[C@H](NC(=O)[C@H](Cc1ccccc1)NC(=O)[C@@H](Cc1c[nH]c2ccccc12)NC(=O)[C@@H](Cc1ccc2ccccc2c1)NC(=O)[C@@H](N)Cc1c[nH]cn1)C(N)=O [H b w F K amide] (H-H[d2Nal][dW]FK-NH2) | 4.2 | 6.8 | 
NCCCC[C@H](NC(=O)[C@H](Cc1ccccc1)NC(=O)[C@@H](Cc1ccc2ccccc2c1)NC(=O)[C@@H](Cc1c[nH]c2ccccc12)NC(=O)[C@@H](N)Cc1c[nH]cn1)C(N)=O [H w b F K amide] (H-H[dW][d2Nal]FK-NH2) | 50 | 15 | 
NCCCC[C@H](NC(=O)[C@H](Cc1ccccc1)NC(=O)[C@@H](Cc1c[nH]c2ccccc12)NC(=O)[C@@H](Cc1c[nH]c2ccccc12)NC(=O)[C@@H](N)Cc1c[nH]cn1)C(N)=O [H w w F K amide] (H-H[dW][dW]FK-NH2) | 50 | 25.8 | 
C[C@@H](N)C(=O)N[C@H](Cc1ccc2ccccc2c1)C(=O)N[C@H](Cc1ccc2ccccc2c1)C(=O)N[C@@H](Cc1ccccc1)C(=O)N[C@@H](CCCCN)C(N)=O [a b b F K amide] (H-[dA][d2Nal][d2Nal]FK-NH2) | 10 | 3.5 | 
C[C@@H](N)C(=O)N[C@H](Cc1c[nH]c2ccccc12)C(=O)N[C@H](Cc1c[nH]c2ccccc12)C(=O)N[C@@H](Cc1ccccc1)C(=O)N[C@@H](CCCCN)C(N)=O [a w w F K amide] (H-[dA][dW][dW]FK-NH2) | 1.47 | 4.1 | 
NCCCNC(=O)[C@H](Cc1ccc2ccccc2c1)NC(=O)[C@H](Cc1ccc2ccccc2c1)NC(=O)[C@H](N)Cc1ccc2ccccc2c1 [b B B ram, DβNal-βNal-βNal-[N-(3-aminopropyl)] amide] |  |  | RAT IV ED50 (growth hormone secretion; Table VI): 100 µg; EC50 (rat pituitary cells [2]; [5]): 15.2 nM
NCCCC[C@H](NC(=O)[C@H](Cc1ccccc1)NC(=O)[C@@H](Cc1ccc2ccccc2c1)NC(=O)[C@@H](Cc1ccc2ccccc2c1)NC(=O)CCN)C(N)=O [bA b b F K amide] (H-[βAla][d2Nal][d2Nal]FK-NH2) | 6.7 | 4.8 | 
CN[C@H](Cc1ccc2ccccc2c1)C(=O)N[C@H](Cc1ccc2ccccc2c1)C(=O)N[C@@H](Cc1ccccc1)C(=O)N[C@@H](CCCCN)C(N)=O [nmb b F K amide] (H-[dNMe2Nal][d2Nal]FK-NH2) | 1000 | > 100 | 
